The source of these data is patent US10653717B2, “Antibiotic compositions” (priority 2016, dated 2020).

Read-outs that look alike come from different tables or passages of the source.

Experiment [1] relates to E. coli DHB4. Description: ROS production, H2DCF-DA staining, flow cytometry. It counts as cell-based, Escherichia coli. The settings on record: 5 μM Ag^+ alone or 20 μM ebselen alone. How it is done:
The E. coli DHB4 cells were grown till the absorbance at OD600 nm of 0.4 in LB medium, and the bacterial cells were treated with different combinations of ebselen and AgNO3 for 10 min. To analyze the amount of ROS production in the bacteria, cells were harvested by centrifugation at 6,000 rpm for 5 min and thoroughly washed 3 times with PBS, and stained with 5 μM H2DCF-DA for 20 min. After the incubation, cells were spin down and re-suspended in PBS, and the ROS production was quantified by flow cytometry (CyAn adp, Beckman coulter).
The E. coli DHB4 cells were grown till the absorbance at OD600 nm of 0.4 in LB medium, and the bacterial cells were treated with silver and antibiotics in combinations for 10 min. To analyze the amount of ROS production in the bacteria, cells were harvested by centrifugation at 6,000 rpm for 5 min and thoroughly washed 3 times with PBS, and stained with 5 μM H2DCF-DA for 20 min. After the incubation, cells were spun down and re-suspended in PBS, and the ROS production was quantified by flow cytometry (CyAnadp, Beckman coulter).

Experiment [2] concerns the target E. coli TrxR (Escherichia coli, UniProt P0A9P4). Format: cell-based. More on the design: endogenous in cells; host or cells: E. coli DHB4. The settings on record: Ag^+ or ebselen alone. How it is done:
E. coli DHB4 cells were grown till the absorbance at OD600 nm, of 0.4 in LB medium, and the bacterial cells were treated with different dilutions of ebselen and AgNO3 for 10 min. Cells were harvested by centrifugation at 6,000 rpm for 5 min and thoroughly washed 3 times with PBS, then cells were re-suspended in lysis buffer (25 mM Tris.HCl, pH 7.5, 100 mM NaCl, 2.5 mM EDTA, 2.5 mM EGTA, 20 mM NaF, 1 mM Na3VO4, 20 mM sodium ß-glycerophosphate, 10 mM sodium pyrophosphate, 0.5% Triton X-100) containing protease inhibitor cocktail and lysed by sonication. The cell lysates were obtained by centrifugation at 13,000 rpm for 20 min and the protein concentration was measured by Lowry protein assay (Bio-Rad DC™).
E. coli DHB4 TrxR activity in cell extracts was measured by a DTNB reduction activity assay.
E. coli DHB4 cells were grown till the absorbance at OD600 nm of 0.4 in LB medium, and the bacterial cells were treated with 80 μM antibiotics and 5 μM AgNO3 for 10 and 60 min, respectively. The cultures treated with 80 μM ebselen and 5 μM AgNO3 were used as the positive control. […] The cell lysates were obtained by centrifugation at 13,000 rpm for 20 min and the protein concentrations were measured by the Lowry protein assay.
E. coli DHB4 TrxR activity in cell extracts was measured by a DTNB reduction activity assay^23.

In experiment [3] the test system is AB-1: Acinetobacter baumannii H#. As for the experimental part: (§1) There are five most difficult-to-treat MDR Gram-negative pathogen species in the clinic, which are also typical GSH-positive bacteria: Klebsiella pneumonia, Acinetobacter baumannii, Pseudomonas aeruginosa, Enterobacter cloacae and Escherichia coli. Two strains of each species were isolated, overnight cultures were diluted 1:1000 times in LB medium, and treated with Ag^+ with a serial concentration of ebselen in combination for 16 h. […] Among these five species, A. baumannii and E. cloacae are very readily formed drug-resistant strains, which are needed to be treated by or the fourth-generation cephalosporin in the clinic, including imipenem, cefepime, and cefotaxime, etc.
(§2) Ten clinical isolated MDR Gram-negative (GSH-positive) strains were grown until an OD600 nm of 0.4 and were diluted 1:100 into 100 μl of LB medium in 96 micro-well plates. Serial dilutions of 100 μl ebselen and AgNO3 were added to the individual wells. […] The culture treated with 0.8% (v/v) DMSO was used as a control.

Experiment [4] relates to AB-2: A. baumannii 0361#. As for the experimental part: as §1, §2
Experiment [5] relates to ECL-1: Enterobacter cloacae 0431#. As for the experimental part: as §1, §2
The subject of experiment [6] is ECL-2: E. cloacae 2301#. How it is done: as §1, §2
The test system of experiment [7] is ECO-1: Escherichia coli 1139#. How it is done: as §1, §2
Experiment [8] concerns ECO-2: E. coli 2219#. How it is done: as §1, §2
Experiment [9] deals with ECO-3: E. coli ZY-1. As for the experimental part:
as §1, §2

The test system of experiment [10] is KP-2: K. pneumoniae subsp. pneumoniae 0322#. As for the experimental part:
as §1, §2

For experiment [11], the system named is PA-1: Pseudomonas aeruginosa 1298#. How it is done:
as §1, §2

Experiment [12] relates to PA-2: P. aeruginosa 0009#. As for the experimental part:
as §1, §2

The target of experiment [13] is reduced E. coli Trx1 (Escherichia coli, UniProt P0AA25). The settings on record: excitation 280 nm.
Chain of reduced E. coli Trx1 (P0AA25 whole entry): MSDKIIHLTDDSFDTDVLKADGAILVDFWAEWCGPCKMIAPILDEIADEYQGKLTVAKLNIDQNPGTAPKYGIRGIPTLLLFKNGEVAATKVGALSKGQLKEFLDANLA
Protocol: Pure recombinant 100 nM TrxR, and 5 μM Trx mixture were incubated with AgNO3 solution in the presence of 200 μM NADPH, and then their activities were detected by DTNB reduction assay. FIG. 4B is a fluorescent spectra of a complex between reduced E. coli 10 μM Trx1 with AgNO3. Reduced 10 μM E. coli Trx1 protein was incubated with a serial concentration of AgNO3 solution and the fluorescent spectra was detected with an excitation wavelength at 280 nm. Oxidized Trx1 (Trx-S2) was used as a control. […] After the treatment described in (B), Trx activity was assayed by a DTNB method in the presence of E. coli Trx1. […] Silver-inhibited E. coli Trx1 was passed through a desalting column to remove small molecules and then Trx activity was measured. E. coli Trx1 without the inhibition was used as a control.
Fluorescent Spectra of reduced E. coli Trx with Silver were recorded at 10 μM in a PerkinElmer Enspire multilabel recorder using an excitation at 280 nm.

Chain of E. coli TrxR (P0A9P4 whole entry): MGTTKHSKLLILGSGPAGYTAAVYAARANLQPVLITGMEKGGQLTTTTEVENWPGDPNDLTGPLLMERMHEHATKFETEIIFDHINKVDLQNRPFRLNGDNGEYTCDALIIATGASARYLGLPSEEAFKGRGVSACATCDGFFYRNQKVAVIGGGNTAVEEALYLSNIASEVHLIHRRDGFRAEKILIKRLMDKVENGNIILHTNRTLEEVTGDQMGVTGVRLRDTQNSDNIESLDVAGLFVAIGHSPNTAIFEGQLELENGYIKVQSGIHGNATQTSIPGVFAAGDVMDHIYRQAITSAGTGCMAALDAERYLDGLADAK

As for `O=c1c2ccccc2[se]n1-c1ccccc1` [ebselen, 2-phenyl-1,2-benzisoselenazol-3(2H)-one], the ROS concentrations result in [1] was “did not change ROS concentrations”. Further, the “TrxR activities in cell extracts” value in [2] is “not influenced”.
With `O=[N+]([O-])[O-].[Ag+]` [silver, silver nitrate], the “MIC of silver in the presence of ebselen” value in experiment [3] (Ebselen 0 μM) is 80 µM; in experiment [3] (Ebselen 1 μM), 80 µM; in [3] (Ebselen 2 μM), 40 µM; in [3] (Ebselen 4 μM), 10 µM; in [4] (Ebselen 0 μM) it was 80 µM; in [4] (Ebselen 1 μM) it was 80 µM. For the same compound, the “MIC of silver in the presence of ebselen” value in experiment [4] (Ebselen 2 μM) worked out at 40 µM; in experiment [4] (Ebselen 4 μM) it was 20 µM; in experiment [5] (Ebselen 0 μM), 80 µM; in experiment [5] (Ebselen 1 μM) it was 40 µM; in experiment [5] (Ebselen 2 μM), 20 µM; in [5] (Ebselen 4 μM), 20 µM. For the same compound, the “MIC of silver in the presence of ebselen” value was 80 µM in experiment [6] (Ebselen 0 μM); 40 µM in experiment [6] (Ebselen 1 μM); 40 µM in experiment [6] (Ebselen 2 μM); 10 µM in experiment [6] (Ebselen 4 μM); 40 µM in experiment [7] (Ebselen 0 μM); 20 µM in [7] (Ebselen 1 μM). In addition, the “MIC of silver in the presence of ebselen” value was determined as 10 µM in [7] (Ebselen 2 μM); 5 µM in experiment [7] (Ebselen 4 μM); 80 µM in [8] (Ebselen 0 μM); 80 µM in [8] (Ebselen 1 μM); 40 µM in experiment [8] (Ebselen 2 μM); 10 µM in experiment [8] (Ebselen 4 μM). Besides, the “MIC of silver in the presence of ebselen” value in [9] (Ebselen 0 μM) is 40 µM; in [9] (Ebselen 1 μM) it was 40 µM; in experiment [9] (Ebselen 2 μM), 20 µM; in experiment [9] (Ebselen 4 μM), 10 µM; in [10] (Ebselen 0 μM), 80 µM; in experiment [10] (Ebselen 1 μM), 40 µM. For the same compound, the “MIC of silver in the presence of ebselen” value in [10] (Ebselen 2 μM) came to 20 µM; in [10] (Ebselen 4 μM), 20 µM; in experiment [11] (Ebselen 0 μM) it was 80 µM; in experiment [11] (Ebselen 1 μM) it was 80 µM; in [11] (Ebselen 2 μM), 20 µM; in [11] (Ebselen 4 μM), 20 µM. Besides, the “MIC of silver in the presence of ebselen” value in experiment [12] (Ebselen 0 μM) stood at 80 µM; in [12] (Ebselen 1 μM), 80 µM; in experiment [12] (Ebselen 2 μM), 40 µM; in experiment [12] (Ebselen 4 μM), 20 µM. The ROS concentrations entry in experiment [1] was “did not change ROS concentrations”. Further, the “tryptophan fluorescence intensity of 10 μM Trx1” value in experiment [13] (1-10 μM Ag^+) is reported as “increased the tryptophan fluorescence intensity”. In addition, in experiment [13] (20-100 μM Ag^+), the “fluorescent intensity of 10 μM Trx1” value is on record as “decreased”. Further, the “TrxR activities in cell extracts” value in experiment [2] is “not influenced”.
